The record followed here is patent US7271260B2, “3,4-dihydroquinazoline derivatives as T-type calcium channel blockers and method of preparing the same” (Korea Institute of Science and Technology, priority 2004, dated 2007).

Molecules are shown by their SMILES. Read-outs that look alike come from different tables or passages of the source.

Assay [1] concerns the target T1, T-type calcium channel α1H (Cav3.2) (Homo sapiens, UniProt O95180).
T1 construct: expressed in transfected cells; host or cells: Xenopus laevis unfertilized oocytes injected with cRNA (pGEM-HEA linearised with AflII, T7 transcription)
In words: Two-electrode voltage clamp on Xenopus unfertilized oocytes expressing α1H T-type calcium channel. In kind it is cell-based. As to conditions: test potential -20 mV from -90 mV; for inhibition at 100 µM: read-out: inhibitory effect (blocking percentage), Xenopus oocyte (α1H) at 100 μM. The method, then: In order to express a gene encoding T-type calcium channel α1H (Cav3.2) (Cribbs, L. L. et al., Circ. Res., 1998, 83, 103-109) in unfertilized Xenopus oocytes, pGEM-HEA was treated with restriction enzyme AflII to obtain a DNA fragment containing 5′-terminal region having the T-type calcium channel cDNA (AF051946). cRNA having a corresponding sequence to that of the fragment was synthesized using T7 RNA polymerase according to the manufacturer's instructions (mMESSAGE mMACHINE kit, Ambion, Austin, U.S.A.). The synthesized cRNA was quantified by measuring the O.D. value with a spectrophotometer. At this time, unfertilized oocytes were prepared from female Xenopus laevis (Xenopus I, U.S.A.) according to the following method. After the frog's abdomen was incised by about 1 cm, three to four lobes were detached therefrom with scissors and separated into small pieces to which several oocytes were attached. The small pieces were hydrolyzed in OR solution (82.5 mM NaCl, 2.5 mM KCl, 1 mM MgCl2, 5 mM HEPES, pH 7.6) and supplemented with collagenase type IA (Sigma, U.S.A.) to remove defolliculation. After selecting healthy oocytes with a dissecting microscope, they were soaked in SOS solution (100 mM NaCl, 2 mM KCl, 1.8 mM CaCl2, 1 mM MgCl2, 5 mM HEPES, 2.5 mM pyruvate, […] gentamicin, pH 7.6) for 3 to 4 hours to revitalize them. 2 to 5 ng of cRNA was injected into each oocyte using Nano-injector. The oocytes were subjected to a test in order to examine the electrical properties of the channel expressed therefrom 4 to 5 days after the injection while being maintained at 18° C.
The current of the calcium channel expressed from the Xenopus unfertilized oocytes was measured according to a two-electrode voltage clamping method. The current was measured in 10 mM Ba^2+ solution (10 mM Ba(OH)2, 90 mM NaOH, 1 mM KCl, 0.1 mM EDTA, 5 mM HEPES, pH was adjusted to 7.4 with methanesulfonic acid). At this time, the voltage clamp and current measurement were regulated with an amplifier for unfertilized oocytes (Model OC-725C, Warner Instrument Corp., U.S.A.), and analog signals were converted into digital signals using Digidata 2000A (Analog-Digital converter, Axon Instrument). The acquisition, storage and analysis of all data were recorded in Pentium IV computer via pCLAMP8. The data were mainly collected at 5 KHz and filtered at 1 KHz (Model 902 filter; Frequency devices located at Harverhill, Mass., U.S.A.). The T-type current was generated by imposing test electric potential of −20 mV every 15 seconds on the unfertilized oocytes, the potential of which was fixed at −90 mV. A blocking percentage was calculated by comparing the […] before and after the drug treatment.
(Two-electrode voltage clamp is typically applied to oocytes expressing channels or transporters.)

The target in assay [2] is T2, α1G T-type calcium channel (Rattus norvegicus, UniProt O54898).
T2 construct: expressed in transfected cells; Perez-Reyes, University of Virginia
T2 sequence (O54898 whole entry): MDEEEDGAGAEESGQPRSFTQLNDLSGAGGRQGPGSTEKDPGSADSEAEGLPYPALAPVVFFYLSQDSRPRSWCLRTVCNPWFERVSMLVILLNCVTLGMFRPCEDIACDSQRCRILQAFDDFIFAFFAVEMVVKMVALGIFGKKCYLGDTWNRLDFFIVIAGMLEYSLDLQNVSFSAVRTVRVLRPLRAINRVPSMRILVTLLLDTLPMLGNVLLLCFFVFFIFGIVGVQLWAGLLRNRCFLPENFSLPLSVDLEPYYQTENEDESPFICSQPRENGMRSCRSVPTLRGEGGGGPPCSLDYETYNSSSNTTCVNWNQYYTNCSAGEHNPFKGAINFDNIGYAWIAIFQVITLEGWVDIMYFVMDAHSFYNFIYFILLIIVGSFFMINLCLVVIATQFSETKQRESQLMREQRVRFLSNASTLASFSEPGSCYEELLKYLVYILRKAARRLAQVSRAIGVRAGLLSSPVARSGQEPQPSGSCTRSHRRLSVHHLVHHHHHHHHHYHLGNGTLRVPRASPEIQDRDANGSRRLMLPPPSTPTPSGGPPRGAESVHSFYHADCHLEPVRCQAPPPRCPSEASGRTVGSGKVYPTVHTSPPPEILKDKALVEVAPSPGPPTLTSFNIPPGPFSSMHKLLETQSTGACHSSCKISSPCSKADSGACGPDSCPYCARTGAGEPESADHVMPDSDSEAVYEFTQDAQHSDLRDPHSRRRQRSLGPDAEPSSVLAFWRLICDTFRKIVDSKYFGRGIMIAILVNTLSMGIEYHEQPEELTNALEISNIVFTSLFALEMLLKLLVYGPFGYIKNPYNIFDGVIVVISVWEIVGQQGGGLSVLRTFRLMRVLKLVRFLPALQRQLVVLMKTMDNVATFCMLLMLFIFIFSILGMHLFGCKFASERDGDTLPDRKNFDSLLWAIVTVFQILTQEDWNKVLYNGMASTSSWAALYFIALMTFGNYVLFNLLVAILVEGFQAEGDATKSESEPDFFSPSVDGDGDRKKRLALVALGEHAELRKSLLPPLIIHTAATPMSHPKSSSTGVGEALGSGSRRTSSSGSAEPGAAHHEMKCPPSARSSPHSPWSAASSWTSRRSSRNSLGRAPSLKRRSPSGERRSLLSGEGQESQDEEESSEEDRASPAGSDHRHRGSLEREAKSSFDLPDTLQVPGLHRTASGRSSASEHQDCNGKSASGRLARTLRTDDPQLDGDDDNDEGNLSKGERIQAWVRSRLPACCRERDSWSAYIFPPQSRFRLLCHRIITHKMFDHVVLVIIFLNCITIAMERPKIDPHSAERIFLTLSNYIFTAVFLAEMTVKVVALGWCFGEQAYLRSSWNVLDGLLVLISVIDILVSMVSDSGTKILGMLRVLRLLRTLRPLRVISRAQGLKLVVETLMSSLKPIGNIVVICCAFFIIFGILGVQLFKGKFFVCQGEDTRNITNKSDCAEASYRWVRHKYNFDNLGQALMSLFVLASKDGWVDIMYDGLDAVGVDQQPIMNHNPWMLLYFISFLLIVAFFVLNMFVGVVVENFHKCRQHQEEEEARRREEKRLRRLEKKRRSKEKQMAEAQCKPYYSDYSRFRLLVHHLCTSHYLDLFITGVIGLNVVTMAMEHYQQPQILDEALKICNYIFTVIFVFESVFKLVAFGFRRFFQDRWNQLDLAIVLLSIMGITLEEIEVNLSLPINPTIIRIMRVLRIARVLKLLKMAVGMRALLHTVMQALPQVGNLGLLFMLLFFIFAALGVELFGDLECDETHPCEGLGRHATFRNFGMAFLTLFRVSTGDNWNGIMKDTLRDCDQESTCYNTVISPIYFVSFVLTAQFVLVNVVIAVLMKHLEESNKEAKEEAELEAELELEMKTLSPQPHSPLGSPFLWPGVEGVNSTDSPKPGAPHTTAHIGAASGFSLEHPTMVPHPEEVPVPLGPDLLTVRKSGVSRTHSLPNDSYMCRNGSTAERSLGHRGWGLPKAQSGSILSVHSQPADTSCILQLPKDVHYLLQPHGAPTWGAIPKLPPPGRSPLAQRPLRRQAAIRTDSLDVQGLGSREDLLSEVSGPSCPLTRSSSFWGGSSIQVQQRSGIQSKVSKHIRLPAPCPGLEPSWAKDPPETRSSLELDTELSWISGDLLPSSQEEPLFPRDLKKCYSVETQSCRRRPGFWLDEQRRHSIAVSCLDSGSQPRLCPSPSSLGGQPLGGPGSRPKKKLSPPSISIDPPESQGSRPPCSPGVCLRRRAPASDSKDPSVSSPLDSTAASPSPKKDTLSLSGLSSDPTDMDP
Put plainly: Whole cell patch clamp on HEK 293 cells expressing α1G T-type calcium channel. In kind it is cell-based. As to conditions: for IC50: read-out: IC50, HEK293 cells (α1G). As for the experimental part: HEK 293 cells were cultured in Dulbecco's modified Eagle's medium (DMEM) supplemented with 10% fetal bovine serum (FBS) and 1% penicillin/streptomycin (v/v) in 36.5° C. humidified incubator (95% air-5% CO2). The culture solution was replaced with a fresh medium every 3 to 4 days and the cultured cells were subjected to sub-culture every week. At this time, the culture solution was treated with G-418 (0.5 mg/ml) solution so that only HEK 293 cells expressing α1G T-type calcium channel can grow. The cells used for the T-type calcium channel activity assay were cultured on a cover slip coated with poly-L-lysine (0.5 mg/ml) whenever sub-cultured and their calcium channel activity was recorded 2 to 7 days after the cultivation. The current of the T-type calcium channel at a single cell level was measured according to an electrophysiological whole cell patch clamping method using EPC-9 amplifier (HEKA, German). At this time, a cell exterior solution [140 mM NaCl, 2 mM CaCl2, 10 mM HEPES (pH 7.4)] and a cell interior solution [KCl 130 mM, HEPES 10 mM, EGTA 11 mM, MgATP 5 mM (pH 7.4)] were employed. The inward current caused by the T-type calcium channel activation was measured according to a T-type calcium channel protocol activated at low current. Such current occurs when the cells were converted into a whole-cell recording mode by stabbing a microglass electrode having 3-4 MΩ resistance, which was filled with the cell interior solution into a single cell and depolarized at −30 mV (50 ms duration period) every 10 seconds with fixing membrane potential to −100 mV.
In order to confirm whether the cells and methods used in Test Example 2 are a suitable screening system for selecting T-type calcium channel blockers, the results obtained in Example 2 were compared with those of α1G T-type calcium channel study reported in a public document (Monteil, A. et al., J. Biol. Chem. 275, 6090-6100, 2000). […] Thus, the candidate compounds were subjected to a test for their inhibitory effects on the T-type calcium channel according to the screening system of the present invention, as follows. Each compound was dissolved in 100% dimethylsulfoxide (DMSO) to prepare 10 mM stock solution. The inhibitory effect on the T-type calcium channel current was examined in 10 μM sample solution (containing 0.1% DMSO) prepared by diluting the stock solution by 1000-fold. The cells were treated with each compound at a concentration of 10 μM for 30 to 60 sec with the cell exterior solution.
Background: The patch-clamp technique gives a direct electrical read-out from membranes.

[3] abbreviates: HEK293, 10 μM, HEK 293 cells expressing α1G, 30 to 60 sec treatment, read-out: inhibitory effect on peak current, HEK293 cells (α1G) at 10 μM.
The mark [4] stands for this setting: HEK293, read-out: inhibitory effect on peak current, HEK293 cells (α1G) at 10 μM.

T1 sequence (O95180 whole entry): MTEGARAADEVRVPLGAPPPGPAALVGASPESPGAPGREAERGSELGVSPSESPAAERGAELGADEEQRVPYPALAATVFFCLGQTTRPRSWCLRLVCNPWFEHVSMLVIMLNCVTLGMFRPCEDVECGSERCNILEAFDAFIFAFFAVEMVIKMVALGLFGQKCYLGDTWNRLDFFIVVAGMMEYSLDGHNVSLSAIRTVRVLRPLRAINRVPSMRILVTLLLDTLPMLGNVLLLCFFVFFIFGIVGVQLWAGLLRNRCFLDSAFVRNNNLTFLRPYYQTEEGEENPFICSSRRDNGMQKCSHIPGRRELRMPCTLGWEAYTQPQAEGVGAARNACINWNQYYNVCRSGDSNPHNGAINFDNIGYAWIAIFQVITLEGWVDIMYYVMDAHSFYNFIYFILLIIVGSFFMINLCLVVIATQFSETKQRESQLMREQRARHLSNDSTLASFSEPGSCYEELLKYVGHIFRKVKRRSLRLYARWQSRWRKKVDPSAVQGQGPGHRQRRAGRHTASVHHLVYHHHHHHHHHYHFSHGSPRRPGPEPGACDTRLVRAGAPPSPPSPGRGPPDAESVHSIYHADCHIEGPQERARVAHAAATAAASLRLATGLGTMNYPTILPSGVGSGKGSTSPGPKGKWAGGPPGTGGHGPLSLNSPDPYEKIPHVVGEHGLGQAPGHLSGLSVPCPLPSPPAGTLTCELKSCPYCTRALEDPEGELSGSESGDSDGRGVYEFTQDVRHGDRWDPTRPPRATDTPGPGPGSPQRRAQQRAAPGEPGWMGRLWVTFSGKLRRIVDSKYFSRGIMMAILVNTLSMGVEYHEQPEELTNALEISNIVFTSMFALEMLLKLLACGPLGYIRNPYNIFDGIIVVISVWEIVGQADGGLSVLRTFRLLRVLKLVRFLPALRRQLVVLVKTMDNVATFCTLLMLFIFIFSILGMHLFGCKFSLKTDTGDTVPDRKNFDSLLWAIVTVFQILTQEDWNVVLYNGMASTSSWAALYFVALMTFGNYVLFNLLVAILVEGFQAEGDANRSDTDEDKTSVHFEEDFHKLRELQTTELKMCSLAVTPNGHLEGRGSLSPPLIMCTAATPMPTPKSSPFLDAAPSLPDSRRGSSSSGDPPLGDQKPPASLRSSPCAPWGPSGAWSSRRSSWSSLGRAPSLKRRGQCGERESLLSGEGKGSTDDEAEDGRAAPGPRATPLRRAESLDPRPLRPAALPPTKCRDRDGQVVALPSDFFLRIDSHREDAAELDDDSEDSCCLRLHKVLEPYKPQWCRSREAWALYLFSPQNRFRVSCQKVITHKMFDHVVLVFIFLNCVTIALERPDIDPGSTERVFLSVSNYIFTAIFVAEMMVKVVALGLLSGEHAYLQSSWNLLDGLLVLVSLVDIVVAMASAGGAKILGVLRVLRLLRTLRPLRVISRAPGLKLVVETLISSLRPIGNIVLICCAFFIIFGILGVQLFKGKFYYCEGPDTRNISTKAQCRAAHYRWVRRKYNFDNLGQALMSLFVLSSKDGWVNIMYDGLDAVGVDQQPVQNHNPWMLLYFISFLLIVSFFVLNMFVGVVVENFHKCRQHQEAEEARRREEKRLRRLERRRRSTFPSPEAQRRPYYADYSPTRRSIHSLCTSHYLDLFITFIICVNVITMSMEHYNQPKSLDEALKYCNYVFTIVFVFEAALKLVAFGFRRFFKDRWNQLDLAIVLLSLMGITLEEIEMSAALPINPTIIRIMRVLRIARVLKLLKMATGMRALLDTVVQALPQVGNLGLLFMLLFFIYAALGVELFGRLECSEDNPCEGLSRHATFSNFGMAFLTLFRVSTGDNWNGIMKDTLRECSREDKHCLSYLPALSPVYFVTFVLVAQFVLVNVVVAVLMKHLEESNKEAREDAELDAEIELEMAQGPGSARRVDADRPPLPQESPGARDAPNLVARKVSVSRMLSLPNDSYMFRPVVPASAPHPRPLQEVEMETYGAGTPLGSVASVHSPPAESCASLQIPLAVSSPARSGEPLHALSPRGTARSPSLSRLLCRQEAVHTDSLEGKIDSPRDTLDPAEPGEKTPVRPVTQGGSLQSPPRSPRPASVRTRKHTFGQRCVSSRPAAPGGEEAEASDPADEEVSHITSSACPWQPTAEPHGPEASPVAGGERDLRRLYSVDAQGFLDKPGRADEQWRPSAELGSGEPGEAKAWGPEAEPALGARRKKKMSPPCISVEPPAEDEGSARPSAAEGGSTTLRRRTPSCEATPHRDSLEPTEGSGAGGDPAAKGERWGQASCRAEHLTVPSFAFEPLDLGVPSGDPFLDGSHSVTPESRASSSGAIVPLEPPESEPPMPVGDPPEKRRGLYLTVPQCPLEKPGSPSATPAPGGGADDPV

Turning to `O=C(CC1c2ccccc2N=C(c2ccccc2)N1c1ccccc1)OCc1ccccc1` (stereo not shown) [Compound 05032], in assay [1], the inhibition at 100 µM was 14.2%.

As for `CN1CCN(C2=Nc3ccccc3C(CC(=O)OCc3ccccc3)N2c2ccccc2)CC1` (stereo not shown) [Compound 05029], the inhibition at 100 µM in assay [1] came out at 32.7%.

In the case of `CCO/C(O)=C(\C#N)C1=Nc2ccccc2C(CC(=O)OC)N1c1ccccc1` (stereo not shown) [Compound 05033], in assay [1], the inhibition at 100 µM is 38.9%.

As a reminder, the IC50 is the midpoint of a concentration-inhibition curve. As for `Nc1ccc(CNC(=O)CC2c3ccccc3N=C(N3CCCCC3)N2c2ccccc2)cc1` (stereo not shown) [Compound 05040], the inhibition at 10 µM in assay [2] (setting [3]) came out at 43.5%. Further, the half-inhibitory concentration (IC50) in assay [2] (HEK 293 cells expressing α1G) was 14.4 µM. Further, the inhibition at 100 µM in assay [1] was 66.8%.

On to `O=C(CC1c2ccccc2N=C(N2CCOCC2)N1c1ccccc1)OCc1ccccc1` (stereo not shown) [Compound 05027], for which the inhibition at 100 µM in assay [1] came out at 20.9%.

For the compound `O=C(CC1c2ccccc2N=C(c2ccccc2)N1c1ccccc1)NCc1ccccc1` (stereo not shown) [Compound 05031], the inhibition at 100 µM in assay [1] was found to be 14.8%.

On to `CN1CCN(C2=Nc3ccccc3C(CC(=O)NCc3ccccc3)N2c2ccccc2)CC1` (stereo not shown) [KYS05028, 4-(N-benzylacetamido)-3-phenyl-2-(4-methylpiperazinyl)-3,4-dihydroquinazoline], for which, in assay [2] (setting [4]), the inhibition at 10 µM was found to be 29%. Moreover, the half-inhibitory concentration (IC50) in assay [2] (HEK 293 cells expressing α1G) was found to be 35.8 µM. Further, the inhibition at 100 µM in assay [1] worked out at 70.3%.

On to `COCC(=O)O[C@]1(CCN(C)CCCc2nc3ccccc3[nH]2)CCc2cc(F)ccc2[C@@H]1C(C)C` [Mibefradil, reference compound], for which, in assay [1], the “inhibitory effect (blocking percentage), Xenopus oocyte (α1H) at 100 μM” value was found to be 86.0% and the inhibition at 100 µM is 86%.

For `O=C(CC1c2ccccc2N=C(N2CCCCC2)N1c1ccccc1)NCc1ccc([N+](=O)[O-])cc1` (stereo not shown) [KYS05034, 4-[N-(4-nitrobenzyl)acetamido]-3-phenyl-2-(piperidine-1-yl)-3,4-dihydroquinazoline], the inhibition at 10 µM in assay [2] (setting [4]) came to 92.3%. Further, in assay [2] (HEK 293 cells expressing α1G), the IC50 was 2.5 µM. In addition, in assay [1], the inhibition at 100 µM was 91.9%.

Turning to `O=C(CC1c2ccccc2N=C(N2CCOCC2)N1c1ccccc1)NCc1ccccc1` (stereo not shown) [KYS05026, 4-(N-benzylacetamido)-3-phenyl-2-(morpholin-1-yl)-3,4-dihydroquinazoline], the inhibition at 10 µM in assay [2] (setting [3]) turned out to be 40.5%. The IC50 in assay [2] (HEK 293 cells expressing α1G) was determined as 21.6 µM. Besides, the inhibition at 100 µM in assay [1] came out at 63.8%.
